# Results from patent US20110044936A1, “Composition for Attracting Bed Bugs” (priority 2009, published 2011).
# Legend:
# Assay type in all cases: in vivo
# [1] = tested on: bed bugs (Cimex lectularius); assay: Bed bug aggregation (attraction) assay, Petri dish arena with treated and control filter paper tents (Example 1)
# Procedure: Attraction Assays: Assay arenas were made from 150×15 mm plastic Petri dishes (VWR#25384-326) containing a 125 mm piece off qualitative filter paper (VWR#28320-100) glued to the bottom using 3M Super 77® multipurpose spray adhesive. A 80 mm hole was cut into the lid and a 500 um mesh Nytex® screen (Bioquip, #7293B) was glued to cover the opening using quick epoxy. Fresh bottom dishes were used in each assay. For these experiments 2.4 cm filter paper folded to create a tent were treated with either a control treatment (10 microliters of silicone oil for aldehyde controls and 5 microliters of deionized water for acid controls) or 10 microliters of the experimental test treatment diluted in silicone oil (aldehydes) or 5 microliters of the experimental chemical diluted in deionized water (acids). Ten bed bugs per test were released into the assay arena for the aldehyde test treatments and controls, five bed bugs per test were released into the assay arena for the acid test treatments. Day cycling bed bugs (Cimex lectularius), 12 hour light: 12 hour dark (7 AM On: 7 PM Off) light cycle, were incubated and evaluated under normal room lighting conditions at room temperature. Readings were taken at 1 hour intervals from the release of bed bugs for 4 hours for aldehydes and one hour for acids, due to the quick volatility of the acids. The number of bed bugs under the control filter paper disk and the number of bed bugs under the test treatment filter paper disk were recorded. The test treatment was considered to be an attractant if the number of bed bugs under the experimental filter disk was greater than the number under the control filter disk. Table 1 below summarizes the experimental data, the experimental test treatments considered as attractants are in bold.
# [2] = tested on: bed bugs (Cimex lectularius); assay: Test arena gas assay, compounds dissolved in nonane (Example 5); conditions: for % Bed bugs in Experimental Zone: after two hour exposure, released from nonane solution at 150.0-184.8 nanograms/hour @ 100 mL/min air flow, test gas 21-22 °C, control gas compressed air; for Attraction of bed bugs to gaseous mixture: test arena, two hour exposure, versus control gas
# Excerpt: A test arena was constructed from a 60×40×22 cm (L:W:H) polystyrene container. A 60×40 cm piece of filter paper was glued on the bottom to provide a walking surface for the bed bugs. At one end of the test arena, a triangular piece of plastic (16 cm high×25 cm long) was glued to the middle of the side and bottom of the container to create test zones of equal area on either side of the partition. On each side of this partition a piece of Tygon® tubing was inserted through a hole 7 cm above the bottom of each test zone to deliver a control gas to one side of the partition (control zone) and the experimental gas to the other side of the partition (experimental zone). The tubing was positioned to deliver the gases downward into the test zones with each outlet 6 cm above the filter paper glued to the bottom of the container. At the other end of the test arena, a 4 W night light was placed 35 cm above the bottom of the arena and regulated to a 12 hour light:12 hour dark (7 AM On: 7 PM Off) light cycle. Also placed adjacent to the night light was a small fan (Boston, cat#EHSDF) to create a gentle removal of gases from the distal part of the arena. Air released by the experimental and control gases was contained within their partitions and were gently drawn away from the respective air inputs, mixed within the arena and removed by the fan. This created a laminar flow where the bed bugs had opportunity to select either the experimental or control gas. Fifty bed bugs (Cimex lectularius) were entrapped within an inverted 90 mm Petri dish at a position furthest from the control and experimental zones until bed bugs were quiescent. Removal of the Petri dish started the experiment and readings were taken every hour for two hours. Data collected were number of bed bugs in the experimental, control and free arena zones. In addition, gas temperature, relative humidity, air flow rate, and percent CO2 data were collected. The experimental gas was considered to be an attractant if more bed bugs were in the experimental zone than in the control zone.
# Determination of Bed Bug Aggregation Effect Using Hexenal, Butyric Acid, trans-2-Hexen-1-al Diethylacetal, Trimethylsilyl Butyrate or Methyl Butyrate Dissolved in an Alkane Solvent Using the test arena and methods described in Example 4, test treatments containing about 300 ppm of a pro-aldehyde compound, trans-2-hexen-1-al diethylacetal, dissolved in nonane, about 300 ppm of Hexenal dissolved in nonane, about 200 ppm of butyric acid dissolved in nonane and about 200 ppm of a pro-organic acid compound, trimethylsilyl butyrate or methyl butyrate, dissolved in nonane were prepared. Separate 100 micro liter pipettes (Drummond Wiretrol 100 μL) were filled with the test solutions. One end of each micro liter pipette was sealed with parafilm leaving one end of each open. […] An air tight lid was placed onto the plastic container and the container was installed in-line after humidity and temperature conditioning of the gas and before the gas entered the arena. The micro liter pipettes were weighed before and after use to determine the amount of the test compounds released. The control gas used for these experiments consisted of house compressed air.
# [3] = tested on: bed bugs (Cimex lectularius); assay: Bed bug aggregation assay, mixtures of Hexenal and Octenal (Example 2); conditions: about 30 ppm in silicone oil; for Number of bed bugs under experimental (Exp) disk: 5 microliters, ten bed bugs, average of two tests
# Procedure: Attraction Assays: […] For this experiment, mixtures of Hexenal and Octenal were diluted in silicone oil at the following ratios: 100:0; 75:25; 50:50; 25:75; and 0:100. […] Readings were taken hourly for four hours from the release of bed bugs in the assay arena. The number of bed bugs under the control disk and the number of bed bugs under the experimental disk were recorded. The test treatment was considered to be an attractant if the number of bed bugs under the experimental filter disk was greater than the number under the control disk. Table 2 below summarizes the experimental data, the experimental test treatments considered as attractants are in bold.
# [4] = organic acid 10 ppm in deionized water, 5 microliters, one hour, five bed bugs, average of two tests
# [5] = organic acid 50 ppm in deionized water, 5 microliters, one hour, five bed bugs, average of two tests
# [6] = organic acid 100 ppm in deionized water, 5 microliters, one hour, five bed bugs, average of two tests
# [7] = organic acid 1000 ppm in deionized water, 5 microliters, one hour, five bed bugs, average of two tests
# [8] = 1 ppm in silicone oil, 10 microliters, 1 Hour, ten bed bugs, average of two tests
# [9] = 1 ppm in silicone oil, 10 microliters, 2 Hour, ten bed bugs, average of two tests
# [10] = 1 ppm in silicone oil, 10 microliters, 3 Hour, ten bed bugs, average of two tests
# [11] = 1 ppm in silicone oil, 10 microliters, 4 Hour, ten bed bugs, average of two tests
# [12] = 10 ppm in silicone oil, 10 microliters, 1 Hour, ten bed bugs, average of two tests
# [13] = 10 ppm in silicone oil, 10 microliters, 2 Hour, ten bed bugs, average of two tests
# [14] = 10 ppm in silicone oil, 10 microliters, 3 Hour, ten bed bugs, average of two tests
# [15] = 10 ppm in silicone oil, 10 microliters, 4 Hour, ten bed bugs, average of two tests
# [16] = 100 ppm in silicone oil, 10 microliters, 1 Hour, ten bed bugs, average of two tests
# [17] = 100 ppm in silicone oil, 10 microliters, 2 Hour, ten bed bugs, average of two tests
# [18] = 100 ppm in silicone oil, 10 microliters, 3 Hour, ten bed bugs, average of two tests
# [19] = 100 ppm in silicone oil, 10 microliters, 4 Hour, ten bed bugs, average of two tests
# [20] = 1000 ppm in silicone oil, 10 microliters, 1 Hour, ten bed bugs, average of two tests
# [21] = 1000 ppm in silicone oil, 10 microliters, 2 Hour, ten bed bugs, average of two tests
# [22] = 1000 ppm in silicone oil, 10 microliters, 3 Hour, ten bed bugs, average of two tests
# [23] = 1000 ppm in silicone oil, 10 microliters, 4 Hour, ten bed bugs, average of two tests
# [24] = 10000 ppm in silicone oil, 10 microliters, 1 Hour, ten bed bugs, one test
# [25] = 10000 ppm in silicone oil, 10 microliters, 2 Hour, ten bed bugs, one test
# [26] = 10000 ppm in silicone oil, 10 microliters, 3 Hour, ten bed bugs, one test
# [27] = 10000 ppm in silicone oil, 10 microliters, 4 Hour, ten bed bugs, one test
# [28] = at a high concentration of about 10,000 ppm
structure (smiles),measurement,setting,value
"CC(=O)O [Acetic acid, reference compound]",Number of bed bugs under experimental (Exp) filter paper disk,[1]; [4],0
same,Number of bed bugs under experimental (Exp) filter paper disk,[1]; [5],1
same,Number of bed bugs under experimental (Exp) filter paper disk,[1]; [6],1
same,Number of bed bugs under experimental (Exp) filter paper disk,[1]; [7],3
same,Number of bed bugs under experimental (Exp) filter paper disk,"[1]; organic acid 10000 ppm in deionized water, 5 microliters, one hour, five bed bugs, average of two tests",3
"O=CO [Formic acid, reference compound]",Number of bed bugs under experimental (Exp) filter paper disk,[1]; [4],0
same,Number of bed bugs under experimental (Exp) filter paper disk,[1]; [5],1
same,Number of bed bugs under experimental (Exp) filter paper disk,[1]; [6],1
same,Number of bed bugs under experimental (Exp) filter paper disk,[1]; [7],3
"CCC/C=C/C=O [Hexenal, trans-2-hexen-1-al]",% Bed bugs in Experimental Zone,[2],38.0%
same,Attraction of bed bugs to gaseous mixture,[2],attracted
same,Number of bed bugs under experimental (Exp) filter paper disk,[1]; [8],4
same,Number of bed bugs under experimental (Exp) filter paper disk,[1]; [9],6
same,Number of bed bugs under experimental (Exp) filter paper disk,[1]; [10],6.5
same,Number of bed bugs under experimental (Exp) filter paper disk,[1]; [11],6
same,Number of bed bugs under experimental (Exp) filter paper disk,[1]; [12],3
same,Number of bed bugs under experimental (Exp) filter paper disk,[1]; [13],3.5
same,Number of bed bugs under experimental (Exp) filter paper disk,[1]; [14],4
same,Number of bed bugs under experimental (Exp) filter paper disk,[1]; [15],5.5
same,Number of bed bugs under experimental (Exp) filter paper disk,[1]; [16],6.5
same,Number of bed bugs under experimental (Exp) filter paper disk,[1]; [17],8
same,Number of bed bugs under experimental (Exp) filter paper disk,[1]; [18],9
same,Number of bed bugs under experimental (Exp) filter paper disk,[1]; [19],8.5
same,Number of bed bugs under experimental (Exp) filter paper disk,[1]; [20],6
same,Number of bed bugs under experimental (Exp) filter paper disk,[1]; [21],7
same,Number of bed bugs under experimental (Exp) filter paper disk,[1]; [22],9
same,Number of bed bugs under experimental (Exp) filter paper disk,[1]; [23],9
same,Number of bed bugs under experimental (Exp) filter paper disk,[1]; [24],0
same,Number of bed bugs under experimental (Exp) filter paper disk,[1]; [25],1
same,Number of bed bugs under experimental (Exp) filter paper disk,[1]; [26],1
same,Number of bed bugs under experimental (Exp) filter paper disk,[1]; [27],1
same,Attractiveness to bed bugs,[1]; [28],much less attractive
same,Number of bed bugs under experimental (Exp) disk,[3]; 1 Hour,3
same,Number of bed bugs under experimental (Exp) disk,[3]; 2 Hour,3
same,Number of bed bugs under experimental (Exp) disk,[3]; 3 Hour,4.5
same,Number of bed bugs under experimental (Exp) disk,[3]; 4 Hours,5
"CCCCC/C=C/C=O [Octenal, trans-2-octen-1-al]",Number of bed bugs under experimental (Exp) filter paper disk,[1]; [8],1
same,Number of bed bugs under experimental (Exp) filter paper disk,[1]; [9],2
same,Number of bed bugs under experimental (Exp) filter paper disk,[1]; [10],3.5
same,Number of bed bugs under experimental (Exp) filter paper disk,[1]; [11],5
same,Number of bed bugs under experimental (Exp) filter paper disk,[1]; [12],2
same,Number of bed bugs under experimental (Exp) filter paper disk,[1]; [13],4
same,Number of bed bugs under experimental (Exp) filter paper disk,[1]; [14],4.5
same,Number of bed bugs under experimental (Exp) filter paper disk,[1]; [15],4
same,Number of bed bugs under experimental (Exp) filter paper disk,[1]; [16],5
same,Number of bed bugs under experimental (Exp) filter paper disk,[1]; [17],6.5
same,Number of bed bugs under experimental (Exp) filter paper disk,[1]; [18],7
same,Number of bed bugs under experimental (Exp) filter paper disk,[1]; [19],6.5
same,Number of bed bugs under experimental (Exp) filter paper disk,[1]; [20],5
same,Number of bed bugs under experimental (Exp) filter paper disk,[1]; [21],4.5
same,Number of bed bugs under experimental (Exp) filter paper disk,[1]; [22],5
same,Number of bed bugs under experimental (Exp) filter paper disk,[1]; [23],5
same,Number of bed bugs under experimental (Exp) filter paper disk,[1]; [24],2
same,Number of bed bugs under experimental (Exp) filter paper disk,[1]; [25],2
same,Number of bed bugs under experimental (Exp) filter paper disk,[1]; [26],2
same,Number of bed bugs under experimental (Exp) filter paper disk,[1]; [27],4
same,Attractiveness to bed bugs,[1]; [28],much less attractive
same,Attractiveness to bed bugs,[1]; at concentrations below about 100 ppm,less attractive
same,Number of bed bugs under experimental (Exp) disk,[3]; 1 Hour,7.5
same,Number of bed bugs under experimental (Exp) disk,[3]; 2 Hour,7.5
same,Number of bed bugs under experimental (Exp) disk,[3]; 3 Hour,9
same,Number of bed bugs under experimental (Exp) disk,[3]; 4 Hours,8.5
same,Attraction of bed bugs to experimental filter disks,[3]; compared among H:O ratios,most bed bugs were attracted
"CCCC(=O)O[Si](C)(C)C [Trimethylsilyl butyrate, trimethylsilyl butyrate]",% Bed bugs in Experimental Zone,[2],9%
same,Attraction of bed bugs to gaseous mixture,[2],attracted
"CCCCC=O [Valeraldehyde, reference compound]",Number of bed bugs under experimental (Exp) filter paper disk,"[1]; 10 milligrams delivered in 10 microliters methanol solution, one experimental disk versus 6 methanol control disks, 1 Hour, average of two tests",0.1
same,Attractiveness to bed bugs,"[1]; saturated aldehyde, 10 milligrams on disk, one hour",not attractive
CCCC(=O)OC [methyl butyrate],% Bed bugs in Experimental Zone,[2],34.0%
same,Attraction of bed bugs to gaseous mixture,[2],attracted
CCC/C=C/C(OCC)OCC [trans-2-hexen-1-al diethylacetal],% Bed bugs in Experimental Zone,[2],28.0%
same,Attraction of bed bugs to gaseous mixture,[2],attracted
